# Legend:
# Sphaerotheca fuliginea = experiment: Cucumber Powdery Mildew (CPM) protectant test in the greenhouse; format: in vivo; conditions: 100 is total disease control, 0 is no disease control; for Cucumber Powdery Mildew (CPM) protectant fungicide data, percent control: 300 g/ha; for pest or weed control at 300 g/ha: Podosphaera fuliginea, topical, 168 h, read-out: Cucumber Powdery Mildew (CPM) protectant fungicide data, percent control
# Method in brief: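 Protectant format: one day after spraying with test compound (A/M/W 1:1:2), cotyledon-plus-one-leaf cucumber plants were misted with Sphaerotheca spores at 2×10^5/ml. Greenhouse disease development; percent control scored at day 7 (100 = total, 0 = none).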
# Pyricularia oryzae = experiment: whole plant or invertebrate; format: in vivo; conditions: 100 is total disease control, 0 is no disease control; for Rice Blast (RB) protectant fungicide data, percent control: 300 g/ha, greenhouse; for pest or weed control at 300 g/ha: Pyricularia oryzae, topical, 144 h, read-out: Rice Blast (RB) protectant fungicide data, percent control, protectant, 300 g/ha, greenhouse
SMILES,"Cucumber Powdery Mildew (CPM) protectant fungicide data, percent control (Sphaerotheca fuliginea) [percent control]","Rice Blast (RB) protectant fungicide data, percent control (Pyricularia oryzae) [percent control]",pest or weed control at 300 g/ha (Sphaerotheca fuliginea) [%],pest or weed control at 300 g/ha (Pyricularia oryzae) [%]
C=CCOC(=O)N1CC(=O)N(CCCC)N=C1c1ccc(Cl)c(Cl)c1 [Compound 172],0,98,,
"CCCCN1N=C(c2ccc(Cl)c(Cl)c2)N(C(=S)SC)CC1=O [Compound 12, 1-n-butyl-3-(3,4-dichlorophenyl)-4-methylthiothiocarbonyl-4,5-dihydro-1,2,4-triazin-6-one]",,,0,95
C=COC(=O)N1CC(=O)N(CC(F)(F)F)N=C1c1cc(Cl)cc(Cl)c1 [Compound 113],75,99,,
"CC(C)(C)OC(=O)N1CC(=O)N(C(=O)OC(C)(C)C)N=C1c1cc(Cl)cc(Cl)c1 [Compound 11, 1,4-di-(t-butoxycarbonyl)-3-(3,5-dichlorphenyl)-4,5-dihydro-1,2,4-triazin-6-one]",0,75,,
CCCCN1N=C(c2cc(Cl)cc(Cl)c2)N(C(=O)OC)CC1=O [Compound 130],0,50,,
O=C1CNC(c2ccc(-c3ccccc3)cc2)=NN1CC(F)(F)F [Compound 146],85,95,,
CCCCOc1ccc(C2=NN(CC(F)(F)F)C(=O)CN2)cc1 [Compound 155],85,90,,
O=C1CNC(c2cc(Cl)nc(Cl)c2)=NN1Cc1ccccc1 [Compound 190],0,80,,
C=CCOC(=O)N1CC(=O)N(CC(F)(F)F)N=C1c1cc(Cl)cc(Cl)c1 [Compound 134],50,80,,
O=C1CNC(c2ccc(C(F)(F)F)cc2)=NN1CC(F)(F)F [Compound 51],0,90,,
CCOC(=O)CN1N=C(c2ccc(F)c(F)c2)NCC1=O [Compound 125],50,50,,
O=C1CNC(C2CCCCC2)=NN1CC(F)(F)F [Compound 45],0,75,,
"CCCCN1C=C2c3ccccc3OC(=O)N2CC1=O [Compound 25, 3-n-Butyl-3H-9-oxa-3,10a-diaza-phenanthrene-2,10-dione]",,,0,75
O=C1CNC(c2cccc(C(F)(F)F)c2)=NN1CC1CC1 [Compound 86],80,99,,
CCOC(=O)Cn1nc(-c2ccc(Cl)cc2)ncc1=O [Compound 250],50,90,,
C=CCSC(=O)N1CC(=O)N(CCCC)N=C1c1ccc(Cl)c(Cl)c1 [Compound 191],50,95,,
Cc1cccc(N2N=C(c3ccc(Cl)cc3)NCC2=O)c1 [Compound 58],50,85,,
CCCCN1N=C(c2cccc(F)c2)NCC1=O [Compound 221],80,85,,
CCCCN1N=C(c2ccc(OC)cc2)NCC1=O [Compound 36],50,99,,
O=c1cnc(-c2ccc(Cl)cc2)nn1-c1ccccn1 [Compound 261],0,50,,
O=C1CNC(c2ccco2)=NN1CC(F)(F)F [Compound 140],50,0,,
CCCCCCCCN1N=C(c2ccc(Cl)cc2)NCC1=O [Compound 56],80,80,,
CCCCCN1N=C(c2cc(Cl)c(C)c(Cl)c2)NCC1=O [Compound 49],75,95,,
CCCCN1N=C(c2cccc(OC)c2)NCC1=O [Compound 114],0,75,,
CCCCCCCCCCN1N=C(c2ccc(Cl)cc2)NCC1=O [Compound 57],0,50,,
CCCCn1nc(-c2sc(C)nc2C(F)(F)F)ncc1=O [Compound 268],75,0,,
CCCCn1nc(-c2cccc(Cl)c2)ncc1=O [Compound 277],0,95,,
Cc1cc(C2=NN(CC(F)(F)F)C(=O)CN2)ccc1[N+](=O)[O-] [Compound 157],0,98,,
C#CCN1N=C(c2cccc(C(F)(F)F)c2)NCC1=O [Compound 88],50,100,,
CCCCCN1N=C(c2ccc(Cl)cc2)NCC1=O [Compound 54],85,99,,

# — patent US7494996B2 (priority 2000, dated 2009)
